Test results reported in patent publication US5340833A, “Urokinase inhibitors” (Eisai Co., Ltd., priority 1992, dated 1994).
Where a name gives a salt, the structure may show the parent alone.

Tests used:
Assay type in all cases: biochemical
[1] = target: T1, human high molecular weight urokinase (Homo sapiens, UniProt P00749); assay: Urokinase Direct Assay; conditions: read-out: uPA Direct: percentage of residual urokinase activity relative to inhibitor-free controls; heading: uPA Direct: percentage of residual urokinase activity relative to inhibitor-free controls; inhibitor concentration of 1 mM
T1 construct: human high molecular weight urokinase; purchased American Diagnostica, Greenwich, Conn
Description: (i) A direct chromogenic assay in which urokinase cleaves a synthetic tripeptide p-nitroanilide (pNA) urokinase substrate.
Incubations were carried out at 37° C. for approximately 2 hours or until adequate yellow color developed. Color was quantitated by measuring absorbance at 405 nm (A405) using a Titertek Multiskan MCC/340 MK II microtiter plate spectrophotometer.

human plasmin = target: T2, human plasmin (Homo sapiens, UniProt P00747); assay: Plasmin Assay; conditions: read-out: PLASMIN IC50
T2 construct: plasmin, the potent general protease produced by cleavage of plasminogen by either urokinase or tPA; purchased American Diagnostica
T2 sequence (P00747 581-810 limits assumed): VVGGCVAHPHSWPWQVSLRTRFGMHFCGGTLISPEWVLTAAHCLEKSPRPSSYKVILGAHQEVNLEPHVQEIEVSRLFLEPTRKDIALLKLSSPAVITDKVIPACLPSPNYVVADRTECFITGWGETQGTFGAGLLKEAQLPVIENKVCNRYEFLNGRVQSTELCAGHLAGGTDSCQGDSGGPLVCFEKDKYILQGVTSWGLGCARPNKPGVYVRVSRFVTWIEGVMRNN
T2 sequence (P00747 97-580 limits assumed): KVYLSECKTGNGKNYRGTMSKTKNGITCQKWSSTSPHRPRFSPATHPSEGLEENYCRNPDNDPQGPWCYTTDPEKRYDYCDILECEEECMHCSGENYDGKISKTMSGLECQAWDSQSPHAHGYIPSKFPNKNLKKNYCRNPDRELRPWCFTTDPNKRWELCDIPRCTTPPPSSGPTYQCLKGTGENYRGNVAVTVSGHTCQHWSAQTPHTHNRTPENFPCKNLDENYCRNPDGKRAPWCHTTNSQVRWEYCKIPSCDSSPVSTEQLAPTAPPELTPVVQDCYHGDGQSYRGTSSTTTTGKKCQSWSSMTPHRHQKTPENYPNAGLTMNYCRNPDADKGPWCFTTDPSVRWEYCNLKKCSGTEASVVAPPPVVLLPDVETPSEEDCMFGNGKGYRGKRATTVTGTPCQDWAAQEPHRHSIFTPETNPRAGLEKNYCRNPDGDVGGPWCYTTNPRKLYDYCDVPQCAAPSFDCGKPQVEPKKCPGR
Description: (v) A chromogenic pNA assay for plasmin, the potent general protease produced by cleavage of plasminogen by either urokinase or tPA. Although urokinase initiates cellular invasiveness by generating plasmin, the additional importance of plasmin in tPA-mediated fibrinolysis dictates that plasmin itself should be free from inhibition by urokinase inhibitors designed as anti-invasiveness agents. […] All other assay conditions, as well as methods of color quantitation, were carried out as described above for the urokinase direct assay.

human two-chain tPA = target: T3, human two-chain tPA (Homo sapiens, UniProt P00750); assay: tPA Indirect (Plasminogen-Linked) Assay (tPA Direct Assay result where lower); conditions: tPA Indirect Plasminogen-Linked Assay; in rare cases direct assay result if lower; read-out: tPA IC50
T3 construct: human two-chain tPA was substituted for urokinase; purchased American Diagnostica
T3 sequence (P00750 311-562 limits assumed): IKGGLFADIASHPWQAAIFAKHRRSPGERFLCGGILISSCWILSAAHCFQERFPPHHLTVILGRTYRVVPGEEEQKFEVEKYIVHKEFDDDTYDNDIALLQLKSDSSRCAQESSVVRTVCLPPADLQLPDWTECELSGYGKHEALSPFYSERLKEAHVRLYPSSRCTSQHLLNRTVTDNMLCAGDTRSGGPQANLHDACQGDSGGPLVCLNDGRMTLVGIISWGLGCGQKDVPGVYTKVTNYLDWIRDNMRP
T3 sequence (P00750 36-310 limits assumed): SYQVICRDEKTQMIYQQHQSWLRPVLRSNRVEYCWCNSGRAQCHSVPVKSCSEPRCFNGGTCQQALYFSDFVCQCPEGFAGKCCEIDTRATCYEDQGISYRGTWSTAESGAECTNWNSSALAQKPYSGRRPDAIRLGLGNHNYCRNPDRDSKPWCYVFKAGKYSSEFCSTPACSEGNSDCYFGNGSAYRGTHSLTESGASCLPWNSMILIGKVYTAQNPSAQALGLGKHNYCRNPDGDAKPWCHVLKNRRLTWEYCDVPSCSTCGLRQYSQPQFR
Excerpt: (iv) Both direct and plasminogen-linked pNA assays for tPA, the other mammalian plasminogen activator and the key initiator of blood clot dissolution or fibrinolysis. Since urokinase and tPA share an absolute specificity for the same peptide bond in plasminogen, urokinase inhibitors designed to block cellular invasiveness must be highly specific for urokinase over tPA in order to avoid serious thrombotic side effects secondary to undesired blockage of normal fibrinolysis. […] Spectrozyme tPA®, American Diagnostica) was substituted for urokinase substrate.

| SMILES | residual urokinase activity at 1000 µM [1] [%] | IC50 (human plasmin) [µM] | IC50 (human two-chain tPA) [µM] |
| --- | --- | --- | --- |
| N=C(N)c1cc2cc(CO)ccc2s1 [Compound 131, 5-(Hydroxymethyl)benzo[b]thiophene-2-carboxamidine hydrochloride] | 6.3 |  |  |
| N=C(N)c1ccc(-c2cccc3sc(C(=N)N)cc23)cc1 [Compound 47, 4-(4-Carboxamidinophenyl)benzo[b]thiophene-2-carboxamidine bis-hydrochloride] | 7.6 |  |  |
| N=C(N)c1cc2c(N3CCOCC3)cccc2s1 [Compound 62, 4-(1-Morpholino)benzo[b]thiophene-2-carboxamidine hydrochloride] | 3.6 |  |  |
| N=C(N)c1cc2cc(-c3cccs3)ccc2s1 [Compound 127, 5-(Thien-2-yl)benzo[b]thiophene-2-carboxamidine hydrochloride] | 1.1 |  |  |
| N=C(N)c1cc2c(ccc3ccccc32)s1 [Compound 205, Naphtho[2,1-b]thiophene-2-carboxamidine hydrochloride] | 0.27 |  |  |
| N=C(N)c1cc2c(-c3ccc(-c4ccc5c(c4)OCO5)o3)cccc2s1 [Compound 79, 4-[5-(Benzo-1,3-dioxolan-5-yl)fur-2-yl]benzo[b]thiophene-2-carboxamidine hydrochloride] | 1.5 |  |  |
| Cc1c(C(=N)N)sc2ccccc12 [Compound 304, 3-Methylbenzo[b]thiophene-2-carboxamidine hydrochloride] | 75 |  |  |
| CCC(C)Cc1ccc2sc(C(=N)N)cc2c1 (racemic) [Compound 109, 5-([R/S]-2-Methylbutyl)benzo[b]thiophene-2-carboxamidine hydrochloride] | 6.6 |  |  |
| CCC=Cc1cccc2sc(C(=N)N)cc12 [Compound 20, 4-(E/Z-But-1-enyl)benzo[b]thiophene-2-carboxamidine hydrochloride] | 0.8 |  |  |
| N=C(N)c1cc2c(C=C(Br)Br)cccc2s1 [Compound 38, 4-(2,2-Dibromoethenyl)benzo[b]thiophene-2-carboxamidine hydrochloride] | 4.8 |  |  |
| N=C(N)c1cc2c(F)cccc2s1 [Compound 2, 4-Fluorobenzo[b]thiophene-2-carboxamidine hydrochloride] | 7.2 |  |  |
| Cc1ccc2sc(C(=N)N)cc2c1 [Compound 105, 5-Methylbenzo[b]thiophene-2-carboxamidine hydrochloride] | 3.4 |  |  |
| N=C(N)c1cc2c(C#Cc3ccccc3)cccc2s1 [Compound 76, 4-(Phenylethynyl)benzo[b]thiophene-2-carboxamidine hydrochloride] | 1.1 |  |  |
| N=C(N)c1cc2cscc2s1 [Compound 323, Thieno[3,4-b]thiophene-2-carboxamidine hydrochloride] | 5.3 |  |  |
| N=C(N)c1cc2c(C3CCCO3)cccc2s1 (racemic) [Compound 61, 4-([R,S]-Tetrahydrofuran-2-yl)benzo[b]thiophene-2-carboxamidine hydrochloride] | 0.6 |  |  |
| C=CCSc1cccc2sc(C(=N)N)cc12 [Compound 59, 4-(Prop-2-en-1-ylthio)benzo[b]thiophene-2-carboxamidine hydrochloride] | 1.1 |  |  |
| COc1ccc(Br)c2sc(C(=N)N)cc12 [Compound 309, 7-Bromo-4-methoxybenzo[b]thiophene-2-carboxamidine hydrochloride] | 18 |  |  |
| N=C(N)c1cccc2sccc12 [Compound 317, Benzo[b]thiophene-4-carboxamidine hydrochloride] | 90 |  |  |
| N=C(N)c1cc2c(-c3cccc4sc(C(=N)N)cc34)cccc2s1 [Compound 52, Bis-(2-carboxamidinobenzo[b]thien-4-yl) bis-hydrochloride] | 2.7 |  |  |
| Cc1cccc2sc(C(=N)N)cc12 [Compound 6, 4-Methylbenzo[b]thiophene-2-carboxamidine hydrochloride] |  | 881 | 478 |
